Assay results published in PMC6669322, “Small Molecule Binding to Alzheimer Risk Factor CD33 Promotes Aβ Phagocytosis” (iScience, 2019).

Experiments:
CD33 = test system: CD33; set-up: method as in Rillahan et al., 2014; conditions: estimated, flow cytometry assay; ref Rillahan et al., 2014; cited from earlier work
CD33 H45A = target: T1, CD33 H45A (Homo sapiens, UniProt P20138, H45A); assay: SNAP-tag homogeneous time-resolved fluorescence binding assay, CD33 H45A; conditions: H45 mutated to alanine, in words
T1 construct: human CD33 ORF (NM_001772.3), lacking its signal peptide; expressed in transfected cells; host or cells: HEK293T, transient, pT8-SNAP vector
Description: (§1) We then used our structural data to design mutations of key residues interacting with P22 to assess which interactions were the most important for binding affinity. The residues were mutated into alanine, and the effect of these mutations on P22 binding affinity was assessed using a SNAP-tag homogeneous time-resolved fluorescence binding assay (see Transparent Methods and Figures 3E–3G). The R119A mutation, which destroys the salt bridge between P22 and CD33, was one of the most detrimental to binding (>30-fold loss) (Figure 2C and Table S4). […]
(§2) HEK293T cells were cultured in DMEM (ThermoFisher Scientific # 11965092) containing 10% FBS (Hyclone # SH30070.03) and 1% Penicillin-Streptomycin (ThermoFisher Scientific # 15140122) and transfected using Fugene HD (Promega # E2312) in 10 cm plates. […] The cells were counted, centrifuged and resuspended in PBS at a concentration of 1,000 cells/μL and 10 μL were plated into each well. […] Non-specific binding was assessed by competition with 100 μM of the non-labeled P22, as well as in control (Snap-tagged dopamine D2R receptor)-transfected cells.
(§3) Fluorescence was read with a PHERAstar plate reader using an excitation of 337 nm and emissions of 620 and 665 nm. […]

CD33 S131A = target: T2, CD33 S131A (Homo sapiens, UniProt P20138, S131A); assay: SNAP-tag homogeneous time-resolved fluorescence binding assay, CD33 S131A; conditions: S131 mutated to alanine, in words
T2 construct: human CD33 ORF (NM_001772.3), lacking its signal peptide; expressed in transfected cells; host or cells: HEK293T, transient, pT8-SNAP vector
Description: as §1, §2, §3

CD33 F21A = target: T3, CD33 F21A (Homo sapiens, UniProt P20138, F21A); assay: SNAP-tag homogeneous time-resolved fluorescence binding assay, CD33 F21A; conditions: binding affinity, F21A vs WT
T3 construct: human CD33 ORF (NM_001772.3), lacking its signal peptide; expressed in transfected cells; host or cells: HEK293T, transient, pT8-SNAP vector
Description: as §1, §2, §3

T3 sequence (P20138 18-364 F21A): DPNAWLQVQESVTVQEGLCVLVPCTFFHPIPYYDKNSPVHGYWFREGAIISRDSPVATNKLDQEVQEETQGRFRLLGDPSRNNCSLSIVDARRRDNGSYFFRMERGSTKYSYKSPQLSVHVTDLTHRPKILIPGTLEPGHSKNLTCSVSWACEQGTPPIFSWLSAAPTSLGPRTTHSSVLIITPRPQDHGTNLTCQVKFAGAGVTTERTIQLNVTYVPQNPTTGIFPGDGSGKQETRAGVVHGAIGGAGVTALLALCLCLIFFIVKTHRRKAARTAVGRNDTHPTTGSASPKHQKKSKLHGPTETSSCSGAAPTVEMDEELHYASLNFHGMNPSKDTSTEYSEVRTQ
T2 sequence (P20138 18-364 S131A): as the sequence (P20138 18-364 F21A) above, with A4F, S114A counted along it
T1 sequence (P20138 18-364 H45A): as the sequence (P20138 18-364 F21A) above, with A4F, H28A counted along it

impact of mutation on P22 binding affinity (CD33 H45A): little to no significant impact | impact of mutation on P22 binding affinity (CD33 S131A): little to no significant impact | Fold-decrease compared to WT (CD33 F21A): 6 fold
SMILES: Cc1cc(C(=O)NC[C@@H](O)[C@@H](O)[C@@H]2O[C@@](OC[C@H]3O[C@@H](O[C@H]4[C@H](O)[C@@H](O)[C@H](OCCN)O[C@@H]4CO)[C@H](O)[C@@H](O)[C@H]3O)(C(=O)O)C[C@H](O)[C@H]2NC(=O)Cn2cc(C3CCCCC3)nn2)cc(C)c1O [P22, β-D-Glucopyranoside, 2-aminoethyl O-[N-[2-(4-cyclohexyl-1H-1,2,3-triazol-1-yl)acetyl]-9-deoxy-9-[(4-hydroxy-3,5-dimethylbenzoyl)amino]-α-neuraminosyl] (2→6)-O-β-D-galactopyranosyl-(1→4)-]
IC50 (CD33): 11 µM
